Measurements from patent publication US6548079B1, “Moxifloxacin formulation containing common salt” (Bayer Aktiengesellschaft, priority 1999, dated 2003).
Counter-ions that a name gives are not always drawn.

Experiments:
[1] = Solubility of moxifloxacin HCl in the presence of sodium chloride; type: physicochemical; details: for Solubility moxifloxacin HCl: 5° C.; for solubility thermodynamic: sodium chloride solution, 5 °C, thermodynamic from solid
Protocol: For a dosage range of from 100 mg to 1000 mg at active compound concentrations of from 0.04% to 0.4% (w/v) of moxifloxacin hydrochloride, it is thus possible to adjust the osmotic pressure to physiological conditions by adding from 0.4% to 0.9% of sodium chloride. […] This ensures that, even on short-term cold storage, there is no precipitation of the active compound as a result of exceeding the saturation solubilities. [table]

physchem = details: water (aqueous solution without NaCl)

Solubility moxifloxacin HCl ([1]; NaCl 0.7 % (w/v)): 0.2 % (w/v)
Solubility moxifloxacin HCl ([1]; NaCl 0.8 % (w/v)): 0.2 % (w/v)
solubility thermodynamic ([1]; saline or isotonic, NaCl 0.1 % (w/v)): 11000 µg/mL
solubility thermodynamic ([1]; saline or isotonic, NaCl 0.2 % (w/v)): 7000 µg/mL
solubility thermodynamic ([1]; saline or isotonic, NaCl 0.3 % (w/v)): 5000 µg/mL
solubility thermodynamic ([1]; saline or isotonic, NaCl 0.4 % (w/v)): 4000 µg/mL
solubility thermodynamic ([1]; saline or isotonic, NaCl 0.5 % (w/v)): 3000 µg/mL
solubility thermodynamic ([1]; saline or isotonic, NaCl 0.6 % (w/v)): 2000 µg/mL
solubility thermodynamic ([1]; saline or isotonic, NaCl 0.9 % (w/v)): 1000 µg/mL
solubility thermodynamic ([1]; water, NaCl 0 % (w/v)): 18000 µg/mL
solubility thermodynamic (physchem): ~24000 µg/mL
Structure (SMILES): COc1c(N2C[C@@H]3CCCN[C@@H]3C2)c(F)cc2c(=O)c(C(=O)O)cn(C3CC3)c12 [moxifloxacin HCl, 1-cyclopropyl-7-([S,S]-2,8-diazabicyclo[4.3.0]non-8-yl)-6-fluoro-1,4-dihydro-8-methoxy-4-oxo-3-quinolonecarboxylic acid]
